# Data reported in patent publication US20210221787A1, “NIRAPARIB SOLID STATE FORM” (JOHNSON MATTHEY PUBLIC LIMITED COMPANY, priority 2018, published 2021).
# Where two headings read alike, the source gives them in different places.
# What was measured:
# [1] = cited from earlier work
# [2] = for extended stability (retention of Form A by XRPD): with and without foil bag
# Description: “Stabilized” as used herein relates to an anhydrous form of the p-toluenesulfonic acid salt of niraparib that is capable of retaining its form for up to at least 4 months when held in storage in a sealed container with desiccant, with or without being stored in a foiled bag.
# XRPD patterns are obtained using a Bruker D8 Advance equipped with a Cu Ka radiation source (λ=1.54 Å), a 9-position sample holder and a LYNXEYE super speed detector. Samples are placed on air sensitive silicon plate holders with zero-background with domes for analysis. One skilled in the art would recognize that the ° 2 θ values and the relative intensity values are generated by performing a peak search on the measured data and the d-spacing values are calculated by the instrument from the ° 2 θ values using Bragg's equation. One skilled in the art would further recognize that the relative intensity for the measured peaks may vary because of sample preparation, orientation and instrument used, for example.
Compound,form conversion on DVS ([1]; DVS up to 95% RH),hygroscopicity (DVS curve) ([1]; DVS),DVS weight gain ([1]; up to 95% RH),"extended stability ([2]; Form A not made under anhydrous conditions (Examples 1-3), compared with Form A made under anhydrous conditions)","extended stability (retention of Form A by XRPD) ([2]; made under anhydrous conditions (Example 4 or 5), sealed vials with desiccant, ambient, 30° C./65% RH or 40° C./75% RH)","extended stability (retention of Form A by XRPD) ([2]; stored only in sealed vials, without desiccant)"
"Cc1ccc(S(=O)(=O)O)cc1.NC(=O)c1cccc2cn(-c3ccc([C@@H]4CCCNC4)cc3)nc12 [Form III, p-toluenesulfonic acid salt of niraparib]",converted to the monohydrate,very hygroscopic,approximately 15.8%,,,
"Cc1ccc(S(=O)(=O)O)cc1.NC(=O)c1cccc2cn(-c3ccc([C@@H]4CCCNC4)cc3)nc12 [Form A, p-toluenesulfonic acid salt of niraparib]",,,,does not exhibit extended stability,at least 4 months,do not exhibit the extended stability
